Results as given in ChEMBL document CHEMBL5465560, “Selectivity Literature for EUbOPEN Chemogenomic Library” (2024).

Tests used:
[1] = molecular target: T1, Testis-specific serine/threonine-protein kinase 1 (Homo sapiens) (UniProt Q9BXA7); experiment: Selectivity interaction (KinomeScan (DiscoverX)) EUB0000655a TSSK1A; settings: at 10 µM
T1 sequence (whole entry): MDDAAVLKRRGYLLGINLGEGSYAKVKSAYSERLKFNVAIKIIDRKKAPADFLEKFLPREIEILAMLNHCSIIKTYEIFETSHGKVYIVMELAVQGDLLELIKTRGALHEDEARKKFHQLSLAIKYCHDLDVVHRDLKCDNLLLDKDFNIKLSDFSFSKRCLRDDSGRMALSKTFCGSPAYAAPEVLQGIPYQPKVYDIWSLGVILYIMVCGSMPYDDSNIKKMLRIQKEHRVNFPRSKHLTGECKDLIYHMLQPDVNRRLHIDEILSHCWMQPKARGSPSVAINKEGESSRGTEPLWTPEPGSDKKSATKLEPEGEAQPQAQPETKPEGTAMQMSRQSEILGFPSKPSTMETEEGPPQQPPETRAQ

[2] = Selectivity interaction (KinomeScan (DiscoverX)) EUB0000655a PKNB; settings: at 10 µM
[3] = molecular target: Tyrosine-protein kinase CSK (Homo sapiens) (UniProt P41240); experiment: Selectivity interaction (KinomeScan (DiscoverX)) EUB0000618a CSK; settings: at 10 µM
Chain of Tyrosine-protein kinase CSK (Homo sapiens) (P41240 2-450 limits assumed): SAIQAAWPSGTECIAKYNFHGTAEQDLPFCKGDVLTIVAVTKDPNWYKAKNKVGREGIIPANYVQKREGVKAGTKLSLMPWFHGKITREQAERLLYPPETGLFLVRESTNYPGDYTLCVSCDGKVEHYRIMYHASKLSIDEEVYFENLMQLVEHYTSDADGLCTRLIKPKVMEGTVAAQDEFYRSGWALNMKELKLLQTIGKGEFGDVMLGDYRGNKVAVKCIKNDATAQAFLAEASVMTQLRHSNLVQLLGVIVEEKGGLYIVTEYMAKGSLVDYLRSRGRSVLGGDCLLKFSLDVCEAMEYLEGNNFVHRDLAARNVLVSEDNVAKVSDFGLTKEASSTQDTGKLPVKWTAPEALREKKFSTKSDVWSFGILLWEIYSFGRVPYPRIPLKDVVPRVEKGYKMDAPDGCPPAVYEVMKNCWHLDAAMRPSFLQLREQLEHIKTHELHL

[4] = molecular target: Atypical kinase COQ8A, mitochondrial (Homo sapiens, UniProt Q8NI60); experiment: Selectivity interaction (KinomeScan (DiscoverX)) EUB0000607a ADCK3; settings: at 10 µM
Chain of Atypical kinase COQ8A, mitochondrial (Q8NI60 163-647 limits assumed): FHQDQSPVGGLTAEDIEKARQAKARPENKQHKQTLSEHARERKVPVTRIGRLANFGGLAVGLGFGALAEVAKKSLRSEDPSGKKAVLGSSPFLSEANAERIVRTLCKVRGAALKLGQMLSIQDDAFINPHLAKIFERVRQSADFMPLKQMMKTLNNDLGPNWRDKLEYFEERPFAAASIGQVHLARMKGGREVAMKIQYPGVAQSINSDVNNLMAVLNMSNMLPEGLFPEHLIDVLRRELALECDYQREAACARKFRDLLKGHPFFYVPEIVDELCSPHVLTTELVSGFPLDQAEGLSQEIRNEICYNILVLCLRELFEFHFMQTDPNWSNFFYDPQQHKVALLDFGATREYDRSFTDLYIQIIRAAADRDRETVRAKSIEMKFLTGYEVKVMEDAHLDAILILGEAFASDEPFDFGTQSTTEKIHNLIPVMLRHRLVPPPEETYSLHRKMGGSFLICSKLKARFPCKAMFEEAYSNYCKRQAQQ

[5] = molecular target: T2, Inhibitor of nuclear factor kappa-B kinase subunit epsilon (Homo sapiens) (UniProt Q14164); experiment: Selectivity interaction (KinomeScan (DiscoverX)) EUB0000607a IKBKE; settings: at 10 µM
T2 sequence (whole entry): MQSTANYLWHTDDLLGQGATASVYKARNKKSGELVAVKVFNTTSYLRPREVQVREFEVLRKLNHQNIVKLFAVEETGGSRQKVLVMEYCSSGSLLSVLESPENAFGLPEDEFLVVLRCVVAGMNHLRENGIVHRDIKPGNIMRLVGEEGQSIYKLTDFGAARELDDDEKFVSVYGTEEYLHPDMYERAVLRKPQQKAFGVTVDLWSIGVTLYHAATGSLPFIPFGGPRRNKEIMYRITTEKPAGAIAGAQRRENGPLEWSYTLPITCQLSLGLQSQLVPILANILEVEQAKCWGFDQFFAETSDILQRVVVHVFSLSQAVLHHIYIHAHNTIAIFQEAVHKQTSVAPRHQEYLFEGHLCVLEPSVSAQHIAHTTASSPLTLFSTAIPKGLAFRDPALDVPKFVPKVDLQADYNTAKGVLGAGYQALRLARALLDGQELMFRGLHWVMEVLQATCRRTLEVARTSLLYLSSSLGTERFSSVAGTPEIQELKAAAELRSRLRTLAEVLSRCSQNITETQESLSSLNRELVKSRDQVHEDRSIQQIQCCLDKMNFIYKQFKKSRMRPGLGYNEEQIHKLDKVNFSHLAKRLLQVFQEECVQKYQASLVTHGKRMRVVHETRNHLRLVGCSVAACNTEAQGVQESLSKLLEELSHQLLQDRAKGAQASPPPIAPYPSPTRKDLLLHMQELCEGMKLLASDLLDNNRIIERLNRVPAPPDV

[6] = molecular target: Calcium/calmodulin-dependent protein kinase type 1G (Homo sapiens) (UniProt Q96NX5); experiment: Selectivity interaction (KinomeScan (DiscoverX)) EUB0001619a CAMK1G; settings: at 1 µM
Chain of Calcium/calmodulin-dependent protein kinase type 1G (Homo sapiens) (Q96NX5 whole entry): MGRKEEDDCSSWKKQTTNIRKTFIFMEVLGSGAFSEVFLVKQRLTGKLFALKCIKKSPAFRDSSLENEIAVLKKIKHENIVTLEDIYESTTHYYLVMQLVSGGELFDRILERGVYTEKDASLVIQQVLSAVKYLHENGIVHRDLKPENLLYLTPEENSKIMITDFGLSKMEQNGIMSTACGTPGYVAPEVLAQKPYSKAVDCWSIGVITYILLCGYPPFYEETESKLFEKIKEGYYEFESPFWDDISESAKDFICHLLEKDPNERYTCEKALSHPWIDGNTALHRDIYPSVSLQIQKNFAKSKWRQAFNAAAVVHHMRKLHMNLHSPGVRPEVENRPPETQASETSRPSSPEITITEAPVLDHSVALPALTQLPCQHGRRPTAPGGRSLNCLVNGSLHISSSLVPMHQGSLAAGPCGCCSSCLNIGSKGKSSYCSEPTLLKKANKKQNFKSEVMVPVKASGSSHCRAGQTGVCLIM

[7] = molecular target: T3, Peripheral plasma membrane protein CASK (Homo sapiens) (UniProt O14936); experiment: Selectivity interaction (KinomeScan (DiscoverX)) EUB0001049a CASK; settings: at 1 µM
T3 sequence (whole entry): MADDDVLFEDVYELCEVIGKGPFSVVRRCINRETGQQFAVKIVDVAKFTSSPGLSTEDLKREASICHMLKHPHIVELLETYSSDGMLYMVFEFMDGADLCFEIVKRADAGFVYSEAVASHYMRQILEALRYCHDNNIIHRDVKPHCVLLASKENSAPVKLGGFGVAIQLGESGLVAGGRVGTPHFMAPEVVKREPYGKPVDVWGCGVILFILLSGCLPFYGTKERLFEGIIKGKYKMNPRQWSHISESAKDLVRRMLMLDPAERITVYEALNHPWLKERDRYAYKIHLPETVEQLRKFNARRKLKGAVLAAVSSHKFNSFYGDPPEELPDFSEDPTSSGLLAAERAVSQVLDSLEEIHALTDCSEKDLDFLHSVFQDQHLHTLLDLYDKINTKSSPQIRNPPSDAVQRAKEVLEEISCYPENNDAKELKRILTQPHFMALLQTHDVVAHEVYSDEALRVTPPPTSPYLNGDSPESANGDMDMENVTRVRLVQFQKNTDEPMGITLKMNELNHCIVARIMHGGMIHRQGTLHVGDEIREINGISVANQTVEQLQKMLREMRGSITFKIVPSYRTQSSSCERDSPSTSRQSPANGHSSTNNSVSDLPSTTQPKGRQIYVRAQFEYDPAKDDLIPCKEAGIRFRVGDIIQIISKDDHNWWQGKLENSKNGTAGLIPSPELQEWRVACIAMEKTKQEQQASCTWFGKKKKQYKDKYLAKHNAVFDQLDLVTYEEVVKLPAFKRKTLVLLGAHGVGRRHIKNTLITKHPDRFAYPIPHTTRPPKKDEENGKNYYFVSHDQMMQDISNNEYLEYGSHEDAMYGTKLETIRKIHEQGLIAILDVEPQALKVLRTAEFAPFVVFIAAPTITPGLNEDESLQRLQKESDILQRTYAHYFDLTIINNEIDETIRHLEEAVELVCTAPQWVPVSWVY

[8] = molecular target: T4, Tyrosine-protein kinase Tec (Homo sapiens) (UniProt P42680); experiment: Selectivity interaction (KinomeScan (DiscoverX)) EUB0001868a TEC; settings: at 1 µM
T4 sequence (whole entry): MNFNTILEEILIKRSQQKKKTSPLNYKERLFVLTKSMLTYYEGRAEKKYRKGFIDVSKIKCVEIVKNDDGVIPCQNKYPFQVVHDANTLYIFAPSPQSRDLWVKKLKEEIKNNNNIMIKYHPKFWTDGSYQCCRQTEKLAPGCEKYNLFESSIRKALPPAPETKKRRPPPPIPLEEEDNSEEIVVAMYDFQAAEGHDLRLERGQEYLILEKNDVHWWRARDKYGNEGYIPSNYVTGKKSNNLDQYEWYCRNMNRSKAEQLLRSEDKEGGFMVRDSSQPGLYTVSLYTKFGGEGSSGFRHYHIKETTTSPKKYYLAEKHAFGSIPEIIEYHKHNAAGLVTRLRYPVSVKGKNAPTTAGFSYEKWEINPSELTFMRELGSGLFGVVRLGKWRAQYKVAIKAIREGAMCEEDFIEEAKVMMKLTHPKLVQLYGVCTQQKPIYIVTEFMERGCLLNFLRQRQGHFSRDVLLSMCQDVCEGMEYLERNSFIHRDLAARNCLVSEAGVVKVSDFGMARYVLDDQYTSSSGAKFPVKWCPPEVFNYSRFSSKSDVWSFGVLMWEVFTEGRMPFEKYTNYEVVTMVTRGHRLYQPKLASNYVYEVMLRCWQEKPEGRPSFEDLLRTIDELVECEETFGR

CN(C)CCOc1ccc(-c2nc(-c3ccncc3)c(-c3ccc4c(c3)CC/C4=N\O)[nH]2)cc1
% of control [1]: 86%
% of control [2]: 65%

O[C@H]1CC[C@H](Nc2ncc3nc(Nc4c(F)cc(F)cc4F)n([C@H]4CCOC4)c3n2)CC1
% of control [3]: 98%

CNC(=O)Nc1ccc(-c2nc(N3CC4CCC(C3)O4)c3cnn(C4CCC5(CC4)OCCO5)c3n2)cc1
% of control [4]: 86%
% of control [5]: 100%

N#Cc1cccc(-c2c[nH]c3ncnc(N4CCOCC4)c23)c1
% of control [6]: 100%

COc1cc(Nc2nc(C)cc(-c3cnn4nc(OC)ccc34)n2)cc(C(F)(F)F)c1
% of control [7]: 65%

Cc1cc(-c2ccnc(Nc3cnn(C)c3)n2)ccc1CNC(=O)N1CC(OC(C)C)C1
% of control [8]: 46%
